Reference: ChEMBL document CHEMBL5512659, “Structure optimizing of flavonoids against both MRSA and VRE” (Eur J Med Chem, 2024)
≈ marks a conversion by molar mass, not a printed value.

Tests used:
Assay type in all cases: functional
Staphylococcus aureus [1] = assay: Antibacterial activity against methicillin resistant Staphylococcus aureus clinical isolate 031
Staphylococcus aureus [2] = assay: Antibacterial activity against methicillin resistant Staphylococcus aureus clinical isolate 003
Staphylococcus aureus [3] = assay: Antibacterial activity against Staphylococcus aureus clinical isolate 29
Staphylococcus aureus [4] = assay: Antibacterial activity against methicillin resistant Staphylococcus aureus clinical isolate 011
Enterococcus faecalis [5] = assay: Antibacterial activity against Enterococcus faecalis clinical isolate 7
Enterococcus faecalis [6] = assay: Antibacterial activity against multidrug resistant Enterococcus faecalis ATCC 51299
Staphylococcus aureus [7] = assay: Antibacterial activity against Staphylococcus aureus clinical isolate 31
Enterococcus faecalis [8] = assay: Antibacterial activity against Enterococcus faecalis clinical isolate 13

CCCCCCc1c(-c2ccc(OCCCCCCN(C)C)cc2OCCCCCCN(C)C)oc2cc(OC)cc(O)c2c1=O
MIC (Staphylococcus aureus [1]): 2 µg/mL (≈ 3.13 µM)
MIC (Staphylococcus aureus [2]): 2 µg/mL (≈ 3.13 µM)
MIC (Staphylococcus aureus [3]): 2 µg/mL (≈ 3.13 µM)
MIC (Staphylococcus aureus [4]): 4 µg/mL (≈ 6.26 µM)
MIC (Enterococcus faecalis [5]): 4 µg/mL (≈ 6.26 µM)
MIC (Enterococcus faecalis [6]): 4 µg/mL (≈ 6.26 µM)
MIC (Staphylococcus aureus [7]): 2 µg/mL (≈ 3.13 µM)
MIC (Enterococcus faecalis [8]): 1 µg/mL (≈ 1.57 µM)

CCCCCCc1c(-c2ccc(OCCCCN3CCCCC3)cc2OCCCCN2CCCCC2)oc2cc(OC)cc(O)c2c1=O
MIC (Staphylococcus aureus [1]): 2 µg/mL (≈ 3.02 µM)
MIC (Staphylococcus aureus [2]): 2 µg/mL (≈ 3.02 µM)
MIC (Staphylococcus aureus [3]): 2 µg/mL (≈ 3.02 µM)
MIC (Staphylococcus aureus [4]): 1 µg/mL (≈ 1.51 µM)
MIC (Enterococcus faecalis [5]): 2 µg/mL (≈ 3.02 µM)
MIC (Enterococcus faecalis [6]): 2 µg/mL (≈ 3.02 µM)
MIC (Staphylococcus aureus [7]): 1 µg/mL (≈ 1.51 µM)
MIC (Enterococcus faecalis [8]): 1 µg/mL (≈ 1.51 µM)

CCCCCc1c(-c2ccc(OC)cc2OC)oc2cc(OC)cc(OC)c2c1=O
MIC (Staphylococcus aureus [2]): > 64 µg/mL
MIC (Enterococcus faecalis [6]): > 64 µg/mL

CCCCCCCCCCc1c(-c2ccc(OC)cc2OC)oc2cc(OC)cc(OC)c2c1=O
MIC (Staphylococcus aureus [2]): > 64 µg/mL
MIC (Enterococcus faecalis [6]): > 64 µg/mL

CCCCCc1c(-c2ccc(O)cc2O)oc2cc(O)cc(O)c2c1=O
MIC (Staphylococcus aureus [2]): 16 µg/mL (≈ 44.9 µM)
MIC (Enterococcus faecalis [6]): 16 µg/mL (≈ 44.9 µM)

CCCCCCc1c(-c2ccc(OCCCCNCCc3ccccc3)cc2OCCCCNCCc2ccccc2)oc2cc(OC)cc(O)c2c1=O
MIC (Staphylococcus aureus [1]): 4 µg/mL (≈ 5.44 µM)
MIC (Staphylococcus aureus [2]): 4 µg/mL (≈ 5.44 µM)
MIC (Staphylococcus aureus [3]): 8 µg/mL (≈ 10.9 µM)
MIC (Staphylococcus aureus [4]): 4 µg/mL (≈ 5.44 µM)
MIC (Enterococcus faecalis [5]): 8 µg/mL (≈ 10.9 µM)
MIC (Enterococcus faecalis [6]): 4 µg/mL (≈ 5.44 µM)
MIC (Staphylococcus aureus [7]): 4 µg/mL (≈ 5.44 µM)
MIC (Enterococcus faecalis [8]): 4 µg/mL (≈ 5.44 µM)

COc1cc(O)c2c(=O)cc(-c3ccc(O)cc3O)oc2c1 [ARTOCARPETIN]
MIC (Staphylococcus aureus [2]): > 64 µg/mL
MIC (Enterococcus faecalis [6]): > 64 µg/mL

CC(C)=CCc1c(-c2ccc(O)cc2O)oc2c3c(cc(O)c2c1=O)OC(C)(C)C=C3 [MORUSIN]
MIC (Staphylococcus aureus [2]): 5 µg/mL (≈ 11.9 µM)
MIC (Enterococcus faecalis [6]): 5 µg/mL (≈ 11.9 µM)

CCCCCc1c(-c2ccc(O)cc2O)oc2cc(OC)cc(O)c2c1=O
MIC (Staphylococcus aureus [2]): 8 µg/mL (≈ 21.6 µM)
MIC (Enterococcus faecalis [6]): 16 µg/mL (≈ 43.2 µM)

CCCCCCc1c(-c2ccc(OCCCCN(CC)CC)cc2OCCCCN(CC)CC)oc2cc(OC)cc(O)c2c1=O
MIC (Staphylococcus aureus [1]): 2 µg/mL (≈ 3.13 µM)
MIC (Staphylococcus aureus [2]): 2 µg/mL (≈ 3.13 µM)
MIC (Staphylococcus aureus [3]): 2 µg/mL (≈ 3.13 µM)
MIC (Staphylococcus aureus [4]): 2 µg/mL (≈ 3.13 µM)
MIC (Enterococcus faecalis [5]): 4 µg/mL (≈ 6.26 µM)
MIC (Enterococcus faecalis [6]): 4 µg/mL (≈ 6.26 µM)
MIC (Staphylococcus aureus [7]): 1 µg/mL (≈ 1.57 µM)
MIC (Enterococcus faecalis [8]): 2 µg/mL (≈ 3.13 µM)

CCCc1c(-c2ccc(O)cc2O)oc2cc(OC)cc(O)c2c1=O
MIC (Staphylococcus aureus [2]): 32 µg/mL (≈ 93.5 µM)
MIC (Enterococcus faecalis [6]): 64 µg/mL (≈ 187 µM)

CC(C)=CCc1c(-c2ccc(O)c3c2OC(C)(C)C=C3)oc2cc(O)cc(O)c2c1=O [KUWANON A]
MIC (Staphylococcus aureus [2]): 5 µg/mL (≈ 11.9 µM)
MIC (Enterococcus faecalis [6]): 10 µg/mL (≈ 23.8 µM)

CCCCCCCCCCCCCCCCc1c(-c2ccc(O)cc2O)oc2cc(O)cc(O)c2c1=O
MIC (Staphylococcus aureus [2]): > 64 µg/mL
MIC (Enterococcus faecalis [6]): > 64 µg/mL

CCCCCCc1c(-c2ccc(OCCCCNCc3ccco3)cc2OCCCCNCc2ccco2)oc2cc(OC)cc(O)c2c1=O
MIC (Staphylococcus aureus [1]): 4 µg/mL (≈ 5.82 µM)
MIC (Staphylococcus aureus [2]): 2 µg/mL (≈ 2.91 µM)
MIC (Staphylococcus aureus [3]): 2 µg/mL (≈ 2.91 µM)
MIC (Staphylococcus aureus [4]): 2 µg/mL (≈ 2.91 µM)
MIC (Enterococcus faecalis [5]): 4 µg/mL (≈ 5.82 µM)
MIC (Enterococcus faecalis [6]): 4 µg/mL (≈ 5.82 µM)
MIC (Staphylococcus aureus [7]): 4 µg/mL (≈ 5.82 µM)
MIC (Enterococcus faecalis [8]): 2 µg/mL (≈ 2.91 µM)

CCCCCCCCCCCCc1c(-c2ccc(O)cc2O)oc2cc(O)cc(O)c2c1=O
MIC (Staphylococcus aureus [2]): 32 µg/mL (≈ 70.4 µM)
MIC (Enterococcus faecalis [6]): 64 µg/mL (≈ 141 µM)

CCCCCCc1c(-c2ccc(O)cc2O)oc2cc(OC)cc(O)c2c1=O
MIC (Staphylococcus aureus [1]): 4 µg/mL (≈ 10.4 µM)
MIC (Staphylococcus aureus [2]): 4 µg/mL (≈ 10.4 µM)
MIC (Staphylococcus aureus [3]): 4 µg/mL (≈ 10.4 µM)
MIC (Staphylococcus aureus [4]): 4 µg/mL (≈ 10.4 µM)
MIC (Enterococcus faecalis [5]): 4 µg/mL (≈ 10.4 µM)
MIC (Enterococcus faecalis [6]): 8 µg/mL (≈ 20.8 µM)
MIC (Staphylococcus aureus [7]): 4 µg/mL (≈ 10.4 µM)
MIC (Enterococcus faecalis [8]): 8 µg/mL (≈ 20.8 µM)

O=c1cc(-c2ccc(O)cc2O)oc2cc(O)cc(O)c12 [NORARTOCARPETIN]
MIC (Staphylococcus aureus [2]): > 64 µg/mL
MIC (Enterococcus faecalis [6]): > 64 µg/mL

CCCCc1c(-c2ccc(OC)cc2OC)oc2cc(OC)cc(OC)c2c1=O
MIC (Staphylococcus aureus [2]): > 64 µg/mL
MIC (Enterococcus faecalis [6]): > 64 µg/mL

CCCCCCCCCCCCc1c(-c2ccc(OC)cc2OC)oc2cc(OC)cc(OC)c2c1=O
MIC (Staphylococcus aureus [2]): > 64 µg/mL
MIC (Enterococcus faecalis [6]): > 64 µg/mL

CC(C)=CCc1c(-c2ccc(O)cc2O)oc2c([C@H]3C=C(C)C[C@@H](c4ccc(O)cc4O)[C@@H]3C(=O)c3ccc(O)cc3O)c(O)cc(O)c2c1=O [KUMANON G]
MIC (Staphylococcus aureus [2]): 5 µg/mL (≈ 7.22 µM)
MIC (Enterococcus faecalis [6]): 5 µg/mL (≈ 7.22 µM)

COc1cc(O)c2c(=O)c(CCCCc3ccccc3)c(-c3ccc(O)cc3O)oc2c1
MIC (Staphylococcus aureus [2]): 8 µg/mL (≈ 18.5 µM)
MIC (Enterococcus faecalis [6]): 16 µg/mL (≈ 37 µM)

CCCCCCCCCCCCCCCCc1c(-c2ccc(O)cc2O)oc2cc(OC)cc(O)c2c1=O
MIC (Staphylococcus aureus [2]): 32 µg/mL (≈ 61 µM)
MIC (Enterococcus faecalis [6]): 64 µg/mL (≈ 122 µM)

CC(C)=CCCC1=C[C@@H](c2c(O)cc3oc(-c4ccc(O)cc4O)cc(=O)c3c2O)[C@H](C(=O)c2ccc(O)cc2O)[C@@H](c2ccc(O)cc2O)C1
MIC (Staphylococcus aureus [2]): 5 µg/mL (≈ 7.22 µM)
MIC (Enterococcus faecalis [6]): 10 µg/mL (≈ 14.4 µM)

CCc1c(-c2ccc(OC)cc2OC)oc2cc(OC)cc(OC)c2c1=O
MIC (Staphylococcus aureus [2]): > 64 µg/mL
MIC (Enterococcus faecalis [6]): > 64 µg/mL

CC(C)=CCC/C(C)=C/CCCc1c(-c2ccc(O)cc2O)oc2cc(O)cc(O)c2c1=O
MIC (Staphylococcus aureus [2]): 32 µg/mL (≈ 71 µM)
MIC (Enterococcus faecalis [6]): > 64 µg/mL

CCCCCCCCCCCCCCCCc1c(-c2ccc(OC)cc2OC)oc2cc(OC)cc(OC)c2c1=O
MIC (Staphylococcus aureus [2]): > 64 µg/mL
MIC (Enterococcus faecalis [6]): > 64 µg/mL

COc1cc(O)c2c(=O)c(CCC/C=C(\C)CCC=C(C)C)c(-c3ccc(O)cc3O)oc2c1
MIC (Staphylococcus aureus [2]): 16 µg/mL (≈ 34.4 µM)
MIC (Enterococcus faecalis [6]): 32 µg/mL (≈ 68.9 µM)

C=CCc1c(-c2ccc(O)cc2O)oc2cc(OC)cc(O)c2c1=O
MIC (Staphylococcus aureus [2]): 32 µg/mL (≈ 94 µM)
MIC (Enterococcus faecalis [6]): 64 µg/mL (≈ 188 µM)

C=CCc1c(-c2ccc(O)cc2O)oc2cc(O)cc(O)c2c1=O
MIC (Staphylococcus aureus [2]): 64 µg/mL (≈ 196 µM)
MIC (Enterococcus faecalis [6]): > 64 µg/mL

CCCc1c(-c2ccc(O)cc2O)oc2cc(O)cc(O)c2c1=O
MIC (Staphylococcus aureus [2]): 64 µg/mL (≈ 195 µM)
MIC (Enterococcus faecalis [6]): > 64 µg/mL
